Numbered stars: 1 amine (or outer) side, 2 acyl side, 3 side chain; on linkers, the order of the positions; unused ones are H or OH. Bridge positions count the residues as written; N and C are the ends. Square brackets hold non-standard residues; d marks the D form. Peptide text beside a SMILES is read from it. I, II: the chains in the order shown. Actinocin(9to1) = Cc1c2oc3c(C)ccc(C(=O)[*:1])c3nc-2c(C(=O)[*:2])c(N)c1=O; NMeV = CN[C@H](C(=O)O)C(C)C; Sar = CNCC(=O)O
Experiments:
[1] = test system: arginase; test: Aortic arginase activity in Apo E knockout mice; assay type: in vivo; conditions: Apo E KO mice, BEC treated
Method: (§1) FIGS. 8A-B Arginase inhibition decreases vascular stiffness and restores endothelial function in Apo E knockout mice. 16 WT mice were randomized to receive a normal or high cholesterol (HC) diet. […] Aortic Pulse wave velocity (PWV) (measured by 20 MHz pulsed Doppler from arch to abdominal aorta (4 cm) was used to measure vascular stiffness before and after pump implanatation.
(§2) Cell lysates were prepared with lysis buffer (50 mM Tris-HCl, pH7.5, 0.1 mM EDTA and protease inhibitors) by brief vigorous vortexing for 30 min and incubation and centrifuging for 20 min at 14,000 g at 4° C. The supernatants are used for arginase activity as described previously^18. Arginase activity from aortic vessels was assayed as described above following homogenization in lysis buffer.

[2] = test system: NO production; test: NO production in rat aortic rings; conditions: rat aortic rings E+, pre-incubation with BEC
Method: FIGS. 7A-B depict arginase dependent endothelial dysfunction in OxLDL treated rat aorta. Arginase inhibition restores endothelial function and increases NO production in rat aortic rings. […] The increase in arginase activity was blocked by preincubation with BEC ([…], *p=0.0007, **p<0.0001 vs. untreated control; #p=0.0003 vs. OxLDL; n=5).
(§3) NO was estimated as nitrate/nitrite (NOx) by Griess reaction after conversion of nitrate to nitrite by nitrate reductase, using the Nitric Oxide Assay Kit (Calbiochem). The concentration of NOx from cell lysates was expressed as nmol/mg proteins.

[3] = test system: NO production; test: Aortic NO production (griess method) in Apo E knockout mice; assay type: in vivo; conditions: Apo E KO mice, BEC treated
[4] = test system: Apo E knockout mice; test: Aortic pulse wave velocity (vascular stiffness) in Apo E knockout mice; assay type: in vivo; conditions: Apo E KO mice, HC diet
Excerpt: as §1

[5] = molecular target: T1, human arginase II (Homo sapiens, UniProt P78540); conditions: cited from earlier work
T1 sequence (P78540 23-354): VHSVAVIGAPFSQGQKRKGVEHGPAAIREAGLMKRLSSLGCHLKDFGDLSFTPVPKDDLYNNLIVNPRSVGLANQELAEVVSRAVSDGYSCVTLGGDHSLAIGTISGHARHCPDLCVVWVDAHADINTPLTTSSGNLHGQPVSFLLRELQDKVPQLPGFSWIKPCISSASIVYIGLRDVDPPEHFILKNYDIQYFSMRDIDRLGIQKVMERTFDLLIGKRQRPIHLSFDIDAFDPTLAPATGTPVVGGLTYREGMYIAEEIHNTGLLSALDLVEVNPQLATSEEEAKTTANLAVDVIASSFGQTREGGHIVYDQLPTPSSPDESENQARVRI

[6] = test system: NO production; test: NO measurement (NOx, Griess reaction) in HAECs; assay type: cell-based, human
Method: (§4) Human aortic endothelial cells (HAECs) were purchased from Cascade Biologics (Portland, Oreg.) and maintained in Medium M200 containing low serum growth supplement according to the supplier's protocol. Confluent HAECs were incubated with starvation medium (M200 plus only 0.5% fetal bovine serum) for 24 hr prior to the experimental protocols.
as §3

[7] = test system: arginase; test: Arginase activity in rat aortic rings; conditions: rat aortic rings E+, preincubation with BEC
Method: as §2

[8] = test system: arginase II; test: Quantitative PCR of arginase II expression in HAECs; assay type: cell-based, human; conditions: HAEC
Method: Total RNA from Ox-LDL-stimulated HAEC was prepared using Trizol Reagent according to the supplier's protocol (Gibco). To exclude contamination with genomic DNA, total RNA was treated with RNase-free DNase (Roche). PCR reaction was performed in iCycler optical system (Bio-rad) using SYBR green PCR master mix. The reverse transcriptional PCR primers are as follows: Arginase I: Forward 5′-GGC AAG GTG GCA GAA GTC A-3′, Reverse 5′-TGGTTGTCAGTGGAGTGTTG-3′, size of PCR products=163 bp; Arginase II: Forward 5′-CTATCAGCACTGGATCTTGTTG-3′, Reverse 5′-GGGAGTAGGAAGTTGGTCATAG-3′, size of PCR products=156 bp. 18S rRNA gene (Forward 5′-CGGCGACGACCCATTCGAAC-3′, Reverse 5′-GAATCGAACCCTGATTCCCCGTC-3′, size of PCR product=99 bp) was amplified as a control.

[9] = test system: arginase II; test: Western blot of arginase II protein in HAECs; assay type: cell-based, human; conditions: HAEC, cycloheximide 10 μM co-incubation
Method: Transient transfection of arginase-SiRNA (Santa Cruz Biotechnology) was performed with Oligofectamine reagent according to instructions provided by the supplier (Invitrogen). In brief, 8 μL of Oligofectamine was added to 17 μL Opti-MEM I reduced serum medium (Gibco), incubated for 5 minutes at room temperature, mixed with 180 μL Opti-MEM medium containing different amount of SiRNA, and further incubated for 15 minutes. The SiRNA-Oligofectamine complex was then overlaid on cells (each well of a 6 well culture dish). After incubation for 6 h, endothelial growth medium containing 3 times serum was added for making normal growth medium of 1× serum concentration. Transfected cells were then further incubated for 36 hr and starved for 24 hr prior to experiments and then stimulated with OxLDL for additional 6 hours.
Cells were lysed in SDS sample buffer (62.5 mM Tris, pH6.8, 2% SDS, and 10% Glycerol) and then sonicated for 5 s to reduce sample viscosity. Each sample was resolved by 10% SDS-PAGE, transferred to PVDF membrane (Bio-rad), analysed with antibodies according to the supplier's protocol, and visualized with peroxidase and an enhanced-chemiluminescence system (Pierce). Normalization was performed using the anti-β-tubulin antibody (BD bioscience, 1:1,000). Densitometric analysis of bands was performed with NIH ImageJ program.

[10] = test system: arginase; test: Arginase activity assay in HAEC lysates; assay type: cell-based, human
Method: as §4, §2

[11] = test system: HAECs; test: Immunofluorescence of arginase II and beta-tubulin in HAECs; assay type: cell-based, human; conditions: HAEC, nocodazole 50 μM, 30 minutes
Method: HAECs were cultured on coverslips coated with 25 µg/ml human plasma fibronectin (Invitrogen). Cells were then fixed and permeabilized with 3% paraformaldehyde and 0.5% Triton X-100 in PBS for 2 minutes, followed by 20 minutes of 3% paraformaldehyde alone. Samples were prepared for immunofluorescence analysis by incubating with a rabbit polyclonal antisera against arginase II (Santa Cruz Biotechnology, 1:50) and a mouse monoclonal antibody against β-tubulin (BD Biosciences, 1:50) for 30 minutes at 37° C. They were then rinsed in tris-buffered saline and incubated with Cy5-conjugated anti-rabbit IgG and Cy3-conjugated anti-mouse IgG (Chemicon, Temecula, Calif.). Images were acquired using a Nikon TE-200 epifluorescence microscope (with a 60× objective, and collected using Openlab software (Improvision, Lexington, Mass.) and an internally cooled 12-bit CCD camera (CoolsnapHQ, Photometrics, Tucson, Ariz.).

N[C@@H](CSCCB(O)O)C(=O)O [BEC, S-(2-boronoethyl)-L-cysteine]
aortic arginase activity [1]: significant decrease | vascular NO production following OxLDL treatment [2]: increased vascular NO production | aortic NO production [3]: restoration of NO production to WT | Aortic pulse wave velocity (PWV) ([4]; BEC group, before pump implantation): 4.9±0.22 m/sec | Aortic pulse wave velocity (PWV) ([4]; after 4 weeks BEC (1 mg/mice) by osmotic infusion pump): 4.0±0.25 m/sec | Ki [5]: 210 nM | effect on HAEC NOx production ([6]; BEC alone, no OxLDL): no effect | prevention of OxLDL-dependent decrease in NO ([6]; HAEC, BEC 10 μmol/L, all time points from 4 hrs): prevents | NOx production, OxLDL+BEC vs. control ([6]; HAEC, OxLDL 50 μg/ml + BEC 10 μmol/L, 4 hrs): 102% | NOx production ([6]; HAEC, OxLDL + BEC 10 μmol/L, 4 hrs, control 14.24±0.95): 14.58±0.94 nmol/mg proteins | OxLDL-induced increase in arginase activity [7]: blocked

Cc1c2oc3c(C)ccc(C(=O)N[C@@H]4C(=O)N[C@H](C(C)C)C(=O)N5CCC[C@H]5C(=O)N(C)CC(=O)N(C)[C@@H](C(C)C)C(=O)O[C@@H]4C)c3nc-2c(C(=O)N[C@@H]2C(=O)N[C@H](C(C)C)C(=O)N3CCC[C@H]3C(=O)N(C)CC(=O)N(C)[C@@H](C(C)C)C(=O)O[C@@H]2C)c(N)c1=O [actinomysin D] (I: T[dV]P[Sar][NMeV] / II: T[dV]P[Sar][NMeV]; ester I:1-I:C, II:1-II:C; linker I:N-II:N via Actinocin(9to1))
arginase II expression (quantitative PCR), relative to control 1.0±0.06 ([8]; OxLDL 4 hrs + actinomysin D 10 μg/ml): 1.1±0.15 | block of OxLDL-induced arginase II expression ([8]; actinomysin D 10 μg/ml): completely blocked

C[C@@H]1C[C@@H]([C@H](O)CC2CC(=O)NC(=O)C2)C(=O)[C@@H](C)C1 [cycloheximide]
block of OxLDL-induced arginase II protein increase [9]: completely blocked

C/C(=C\c1csc(C)n1)[C@@H]1C[C@@H]2O[C@]2(C)CCC[C@H](C)[C@H](O)[C@@H](C)C(=O)C(C)(C)[C@@H](O)CC(=O)O1 [epothilone B]
arginase activity ([10]; OxLDL + epothilone B 0.1 μmol/L): 73.55±2.82 μmol Urea/mg protein/min | endothelial NO production ([6]; HAEC, OxLDL + epothilone B 0.1 μmol/L): 8.05±0.47 nmol/mg proteins | basal endothelial cell NOx ([6]; HAEC, epothilone B alone): small but not statistically significant increase

COC(=O)Nc1nc2ccc(C(=O)c3cccs3)cc2[nH]1 [nocodazole]
arginase activity ([10]; nocodazole 5 μmol/L, control 40.4±7.63): 100.7±11.17 μmol Urea/mg protein/min | arginase activity ([10]; nocodazole 50 μmol/L, control 40.4±7.63): 134.3±0.28 μmol Urea/mg protein/min | arginase activity ([10]; nocodazole in combination with Ox-LDL): 141.9±7.07 μmol Urea/mg protein/min | NOS measurement ([6]; HAEC, nocodazole treatment): reciprocal decrease | arginase II localization (immunofluorescence) [11]: diffuse arginase localization

Reference: patent publication US20090181010A1, “Arginase II: a target for the prevention of atherosclerosis” (The Johns Hopkins University, priority 2006, published 2009)
